Values joined by “and” are separate entries in the source; they are usually repeats but may differ in a detail not shown here. Identical values can stand only once.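 How tested: cells in 96-well plates exposed to compound for 48 hours at five concentrations. Abbreviation: GI50, concentration required for 50% inhibition of growth. TGI is the concentration that stops growth completely.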
What was measured:
Assay in all cases: NCI tumour cell line growth inhibition, 48 h
[1] = test system: DLD-1 colon
[2] = test system: DMS 114 small cell lung
[3] = test system: KM20L2 colon
[4] = test system: LXFL 529 NSCLC
[5] = test system: M19-MEL melanoma
[6] = test system: RXF-631 renal
[7] = test system: SNB-78 CNS
[8] = test system: HOP-18 NSCLC
[9] = test system: MDA-N
[10] = test system: P388 leukemia
[11] = test system: P388/ADR leukemia
[12] = test system: SN12K1 renal

| SMILES | TGI [1] [µM] | TGI [2] [µM] | TGI [3] [µM] | TGI [4] [µM] | TGI [5] [µM] | TGI [6] [µM] | TGI [7] [µM] | TGI [8] [µM] | TGI [9] | also measured |
| --- | --- | --- | --- | --- | --- | --- | --- | --- | --- | --- |
| O=C(c1ccccc1)C1OC12C(=O)Nc1ccccc12 (configuration not stated) | > 100 | 88.8 | 66.8 | 30.3 | > 100 | > 100 | > 100 |  |  |  |
| O=C1OC2CCCC[C@@H]2C2C[C@]34CCCCC3[C@@H](C(=O)O4)C12 (some centres not stated) | > 100 | > 100 | > 100 | > 100 | > 100 |  | > 100 | > 100 |  |  |
| CN(C)c1cc[c]([Sn]([c]2ccc(N(C)C)cc2)([c]2ccc(N(C)C)cc2)[c]2ccc(N(C)C)cc2)cc1 |  | 13.8 | 14.8 | 12.9 | 24.4 |  | 11.5 | 32.9 |  | GI50 [2]: 3.15 µM; GI50 [8]: 8.77 µM; GI50 [3]: 4.3 µM; GI50 [4]: 3.09 µM; GI50 [5]: 5.17 µM; GI50 [7]: 3.82 µM |
| CCn1c(-c2ccc(OC(C)=O)cc2)c(C)c2cc(OC(C)=O)ccc21 |  |  |  |  |  |  |  |  | 77.9 µM |  |
| O=c1c2cc(Br)cc(Br)c2nc(CCCl)n1CCO | > 100 | > 100 | > 100 | > 100 | > 100 | > 100 | > 100 |  |  |  |
| COc1ccc(CC2NCCc3cc(OC)c(OC)cc32)cc1Br (configuration not stated) | > 100 | 52.9 | > 100 | > 100 | 41.5 |  | > 100 | > 100 | > 100 µM |  |
| CCN(CC)c1ccc(N=Nc2ccc(-c3nc4ccc[n+](C)c4s3)cc2)cc1 |  |  | 19.9 | 17.9 | 10.6 |  | 31.6 | 31.3 |  |  |
| Clc1ccc(C=Nc2ccc3c(c2)Cc2ccccc2-3)c(Cl)c1 |  |  |  |  |  |  |  |  | > 100 µM |  |
| CCOC(=O)NC(=O)c1cn(CCCOC(=O)CCCCCCCCCCC(=O)OCCCn2cc(C(=O)NC(=O)OCC)c(=O)[nH]c2=O)c(=O)[nH]c1=O | > 100 |  | > 100 | > 100 | > 100 | > 100 | > 100 | > 100 |  |  |
| C1C[OH+]CC[OH+]CC[OH+]CC[OH+]CC[OH+]1.[Cl-].[V] | > 100 | > 100 | > 100 | > 100 |  |  |  | > 100 |  | GI50 [1]: > 100 µM; GI50 [2]: > 100 µM; GI50 [8]: 60.6 µM; GI50 [3]: > 100 µM; GI50 [4]: > 100 µM |
| N#CC1CC2(C1)OCCS2 (configuration not stated) | > 100 |  | > 100 | > 100 |  |  | > 100 |  |  |  |
| O=C1CCC(O)=C1N=Nc1ccccc1 | > 100 | > 100 |  |  | > 100 | > 100 | > 100 | > 100 |  |  |
| O=C(Nc1c(Cl)cc([N+](=O)[O-])cc1Cl)C(=O)C(C1OC(=O)c2ccccc21)[N+](=O)[O-] (configuration not stated) | > 100 | > 100 | > 100 | > 100 | > 100 | > 100 | > 100 |  |  |  |
| O=C1CC2c3ccccc3CCC2c2ccccc21 (configuration not stated) |  |  |  |  |  |  |  |  | 21.4 µM |  |
| C=C1CCC(CC[C@@H]2CC[C@]3(OC2)O[C@@]2(O)CC[C@]3(C)OC2(C)C)C(C)(C)[C@H]1C/C=C1/C(=O)OC[C@@H]1O (some centres not stated) |  |  |  |  |  |  |  |  | 4.36 µM |  |
| C=CCc1ccc(Oc2cc(CC=C)c3c(c2O)O[C@@H](CO)[C@H]3c2ccc(O)c(-c3cc(CC=C)ccc3O)c2)cc1 | > 100 | 54.6 | 93.5 | 90.7 | > 100 |  | > 100 | > 100 |  |  |
| O=C1CSC(/C(=N/Nc2ccccc2)c2nc3ccccc3[nH]2)=N1 | > 100 | > 100 | > 100 | > 100 | > 100 |  | > 100 |  |  |  |
| O=C1[C@@H]2C(c3ccccc3F)=NO[C@@H]2C(=O)N1c1ccc(Cc2ccc(N3C(=O)[C@H]4C(c5ccccc5F)=NO[C@H]4C3=O)cc2)cc1 | > 100 | > 100 | > 100 | > 100 | > 100 | > 100 | > 100 | > 100 |  |  |
| COc1cc(/C=C(\C#N)c2ccccc2)cc(OC)c1 | > 100 | > 100 | > 100 | > 100 | > 100 |  | > 100 |  |  |  |
| O=C1CC2CCCC23CC2(CCN13)OCCO2 (configuration not stated) | > 100 | > 100 | > 100 | > 100 | > 100 | > 100 | > 100 | > 100 |  |  |
| ClCC[N+]12CC[N+](CCCl)(CC1)C2 |  |  |  |  |  |  |  |  | > 100 µM |  |
| Clc1ccc2c(c1)-c1c3c(nn1-c1ccccc1)-c1ccccc1SC3O2 (configuration not stated) |  | > 100 | > 100 | > 100 | > 100 |  | > 100 | > 100 |  |  |
| CCCCCCCCCCCC(=O)OCC1OC(OC)C(NC(=O)N(CCCl)N=O)C(O)C1O (configuration not stated) | 52.3 | 39 | 36.8 | 26.4 | > 100 |  |  | > 100 |  |  |

| SMILES | TGI [1] [µM] | TGI [2] [µM] | TGI [3] [µM] | TGI [4] [µM] | TGI [5] [µM] | TGI [6] [µM] | TGI [7] [µM] | TGI [8] [µM] | TGI [9] | also measured |
| --- | --- | --- | --- | --- | --- | --- | --- | --- | --- | --- |
| O=C1NC2OC(C(O)CO)C(O)C2O1 (configuration not stated) |  | > 100 | > 100 | > 100 | > 100 |  |  | > 100 |  |  |
| O=C1NC(=O)C(CC2CCCCCCCCCCC2=O)C(=O)N1 (configuration not stated) |  |  |  |  |  |  |  |  | > 100 µM |  |
| Nc1ccn(C2CCC(CO)O2)c(=O)n1 (configuration not stated) |  |  |  |  |  |  | > 81.9 |  | > 1000 µM |  |
| O=C(O)[C@H](NS(=O)(=O)c1ccc([N+](=O)[O-])cc1)c1ccccc1 | > 100 | > 100 | > 100 | > 100 | > 100 | > 100 | > 100 | > 100 |  |  |
| O=C(NCO)NCOCn1c(=O)n(CO)c(=O)n(CO)c1=O | 64.4 | 99.3 | > 94.9 | 42.8 | > 66.3 | > 100 | > 73.9 | > 100 |  |  |
| Nc1ccc2cc3ccc(N)cc3nc2c1 | 10.5 | 3.03 | 6.61 | 10.3 | 4.07 | 4.41 | 9.23 | 8.41 | 3.79 µM and 2.77 µM |  |
| C/C(N=NC(=S)N(C)C)=C1\C=CC=CN1O | > 21.2 |  | > 100 | > 100 | > 100 | > 100 | > 100 | > 100 | > 100 µM |  |
| COc1cc(NC(C)CCCN)c2nccc(C)c2c1 (configuration not stated) |  |  |  |  |  |  |  |  | 33.7 µM |  |
| Cc1c(C(=O)/C=C/c2ccccc2)[n+](=O)c2ccccc2n1[O-] | 27.5 | 22.2 | 35.5 | 26 | 30 |  | > 100 | 57 |  |  |
| c1ccc(C2Nc3ccccc3C3OCCCC23)cc1 (configuration not stated) | > 100 | 62.4 | 47.7 | > 100 | > 100 | > 100 | > 100 |  |  |  |
| Cn1c2ccccc2c(=O)c2ccc(Cl)cc21 |  |  |  |  |  |  |  |  | > 10 µM |  |
| C/C(CC(=O)NCCc1ccccc1)=N\NC(=O)C[n+]1ccccc1 | > 100 | > 100 | > 100 | > 100 | > 100 | > 100 | > 100 |  |  |  |
| NC(=O)NCc1c(C(N)=O)ncn1Cc1ccccc1 | > 100 | > 100 | > 100 | > 100 | > 100 |  | > 100 | > 100 |  |  |
| Br[C](Br)(Br)[Hg][c]1ccccc1 |  |  |  |  |  |  |  |  | 38.7 µM | GI50 [9]: 17.6 µM |
| COc1ccc(/C=C/c2cc(OC)cc(=O)o2)cc1 |  |  |  |  |  |  |  |  | > 100 µM |  |
| CC1=C(O)C(=O)C=C2C1=CC=C1[C@@]2(C)CC[C@@]2(C)[C@@H]3C[C@](C)(C(=O)O)CC[C@]3(C)CC[C@]12C |  |  |  |  |  |  |  |  | 0.075 µM |  |
| S=C1OC2CCCC[C@H]2O1 (some centres not stated) | > 100 | > 100 | > 100 | > 100 | > 100 | > 100 | > 100 | > 100 |  |  |
| O=C1/C(=C/c2cccc([N+](=O)[O-])c2)COc2ccc(Br)cc21 | > 100 | > 100 | > 100 | > 100 | > 100 |  | > 100 | > 100 |  |  |
| C=CC/C=C/C/C=C/CCCCCCCc1cccc(O)c1C(=O)O | > 100 | > 100 | > 100 | > 100 | > 100 | > 100 | > 100 | 65.3 |  |  |
| Nc1nc(F)nc2c1ncn2C1OC(CO)C(O)C1O (configuration not stated) |  |  |  |  |  |  |  |  | > 100 µM |  |
| COc1c(CCl)cc(-c2cc(=O)c3ccccc3s2)cc1CCl |  |  |  |  |  |  |  |  | > 100 µM |  |
| CCCSc1nc(COC(=O)NC)c(COC(=O)NC)n1C | > 100 | > 100 | > 100 | > 100 | > 100 |  | > 100 | > 100 |  | TGI [10]: 54.8 µM; TGI [11]: 61.8 µM; TGI [12]: > 100 µM |
